The values that follow are results of earlier work, collected in patent publication US20170095440A1, “METHOD OF TREATING CANINE PANCREATITIS” (CK9, LLC, priority 2014, published 2017).

In the series the test system is serine protease. The conditions noted are these: hydrolysis products of Camostat Mesilate; cited from earlier work.

The structures appear in SMILES notation.

For the compound `N=C(N)Nc1ccc(C(=O)O)cc1` [GBA, 4-guanidinobenzoic acid], the Anti-proteolytic activity result was “non-active”. As for `N=C(N)Nc1ccc(C(=O)Oc2ccc(CC(=O)O)cc2)cc1` [GBPA, 4-(4-guanidino-benzoyloxy) phenylacetic acid], the Anti-proteolytic activity result was “active anti-proteolytic metabolite”.
